Source: the supplement of paper PMC11208160

Assay: recombinant UMI read abundance after kanamycin selection (control-corrected) (log10(CPM+1)); higher = more efficient recombination; extreme values may be limits of the assay; sequences stand for … in AGTGCAGAGAAAATCGGCCAGTTTTCTCTGCCTGCAGTCCGCATGCCGTGGGACCCCTTGGGTTCTAACCTGTTGCCTAGATTTATGCAGCGGACTGCCTTTCTCCCAAAGTGATAAACCGG…AGGTTGGTTTCACT; site = the 11-nt donor
Procedure, shortened: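 Counts of recombinant UMIs were reported as log10(CPM+1). Before that, they were converted to CPM, averaged over replicates and scaled using control-derived factors. They came from PCR across the donor–target junction after Escherichia coli carrying the pair library and target plasmid was plated on IPTG (0.07 mM) plus kanamycin, or unselected, in two replicates each.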
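Further: IS621 bridge recombinase in Escherichia coli cells against a fixed T5 target plasmid.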

GAAGATTCATGGACCGGTTTTCCCGGTAATCCGTATTTGAT (site GAAGATTCTAG)
recombinant UMI read abundance (log10): 0

GAAGATTCATGGACCGGTTTTCCCGGTAATCCGTATTTGAT (site GAAGATTCTAT)
recombinant UMI read abundance (log10): 2.48

GAAGATTCATGGACCGGTTTTCCCGGTAATCCGTATTTGTG (site GAAGATTCTAA)
recombinant UMI read abundance (log10): 1.55

GAAGATTCATGGACCGGTTTTCCCGGTAATCCGTATTTGTG (site GAAGATTCTCA)
recombinant UMI read abundance (log10): 2.81

GAAGATTCATGGACCGGTTTTCCCGGTAATCCGTATTTGTG (site GAAGATTCTGA)
recombinant UMI read abundance (log10): 0

GAAGATTCATGGACCGGTTTTCCCGGTAATCCGTATTTGTG (site GAAGATTCTTA)
recombinant UMI read abundance (log10): 1.24

GAAGGACCATGGACCGGTTTTCCCGGTAATCCGTATTTGCG (site GAAGGACCTCG)
recombinant UMI read abundance (log10): 0

GAAGGGACATGGACCGGTTTTCCCGGTAATCCGTATTTGCA (site GAAGGGACTTG)
recombinant UMI read abundance (log10): 2.41

GAAGGTGCATGGACCGGTTTTCCCGGTAATCCGTATTTGAA (site GAAGGTGCTTT)
recombinant UMI read abundance (log10): 2.08

GAAGTCTCATGGACCGGTTTTCCCGGTAATCCGTATTTGGT (site GAAGTCTCTAC)
recombinant UMI read abundance (log10): 2.53

GAATACACATGGACCGGTTTTCCCGGTAATCCGTATTTGCG (site GAATACACTCG)
recombinant UMI read abundance (log10): 2.66

GAATACTCATGGACCGGTTTTCCCGGTAATCCGTATTTGGA (site GAATACTCTTC)
recombinant UMI read abundance (log10): 2.53

GAATAGACATGGACCGGTTTTCCCGGTAATCCGTATTTGCC (site GAATAGACTGG)
recombinant UMI read abundance (log10): 2.33

GAATAGACATGGACCGGTTTTCCCGGTAATCCGTATTTGCC (site GCATAGACTGG)
recombinant UMI read abundance (log10): 1.73

GAATAGACATGGACCGGTTTTCCCGGTAATCCGTATTTGCC (site GGATAGACTGG)
recombinant UMI read abundance (log10): 1.44

GAATAGACATGGACCGGTTTTCCCGGTAATCCGTATTTGCC (site GTATAGACTGG)
recombinant UMI read abundance (log10): 2.39

GAATAGTCATGGACCGGTTTTCCCGGTAATCCGTATTTGGG (site GAATAGTCTCC)
recombinant UMI read abundance (log10): 1.13

GAATGAACATGGACCGGTTTTCCCGGTAATCCGTATTTGGT (site GAATGAACTAC)
recombinant UMI read abundance (log10): 1.55

GAATGGCCATGGACCGGTTTTCCCGGTAATCCGTATTTGCT (site GAATGGCCTAG)
recombinant UMI read abundance (log10): 0.0235

GAATGGCCATGGACCGGTTTTCCCGGTAATCCGTATTTGCT (site GAATGGCCTCG)
recombinant UMI read abundance (log10): 0.0255

GAATGGCCATGGACCGGTTTTCCCGGTAATCCGTATTTGCT (site GAATGGCCTGG)
recombinant UMI read abundance (log10): 0

GAATGGCCATGGACCGGTTTTCCCGGTAATCCGTATTTGCT (site GAATGGCCTTG)
recombinant UMI read abundance (log10): 0

GAATTCGCATGGACCGGTTTTCCCGGTAATCCGTATTTGCT (site GAATTCGCTAG)
recombinant UMI read abundance (log10): 2.87

GACAAAACATGGACCGGTTTTCCCGGTAATCCGTATTTGCG (site GACAAAACTCG)
recombinant UMI read abundance (log10): 1.5

GACAAAACATGGACCGGTTTTCCCGGTAATCCGTATTTGGC (site GACAAAACTGC)
recombinant UMI read abundance (log10): 0

GACAAACCATGGACCGGTTTTCCCGGTAATCCGTATTTGGG (site GACAAACCTAC)
recombinant UMI read abundance (log10): 0.0248

GACAAACCATGGACCGGTTTTCCCGGTAATCCGTATTTGGG (site GACAAACCTCC)
recombinant UMI read abundance (log10): 0

GACAAACCATGGACCGGTTTTCCCGGTAATCCGTATTTGGG (site GACAAACCTGC)
recombinant UMI read abundance (log10): 0

GACAAACCATGGACCGGTTTTCCCGGTAATCCGTATTTGGG (site GACAAACCTTC)
recombinant UMI read abundance (log10): 0

GACAATCCATGGACCGGTTTTCCCGGTAATCCGTATTTGAA (site GACAATCCTTT)
recombinant UMI read abundance (log10): 0.601

GACAATCCATGGACCGGTTTTCCCGGTAATCCGTATTTGAA (site GCCAATCCTTT)
recombinant UMI read abundance (log10): 0

GACAATCCATGGACCGGTTTTCCCGGTAATCCGTATTTGAA (site GGCAATCCTTT)
recombinant UMI read abundance (log10): 0.0165

GACAATCCATGGACCGGTTTTCCCGGTAATCCGTATTTGAA (site GTCAATCCTTT)
recombinant UMI read abundance (log10): 0.0122

GACACAGCATGGACCGGTTTTCCCGGTAATCCGTATTTGAC (site GACACAGCTGT)
recombinant UMI read abundance (log10): 2.44

GACACGTCATGGACCGGTTTTCCCGGTAATCCGTATTTGCC (site GACACGTCTGG)
recombinant UMI read abundance (log10): 2.45

GACAGCTCATGGACCGGTTTTCCCGGTAATCCGTATTTGGT (site GACAGCTCTAC)
recombinant UMI read abundance (log10): 1.68

GACAGCTCATGGACCGGTTTTCCCGGTAATCCGTATTTGTC (site GACAGCTCTGA)
recombinant UMI read abundance (log10): 1.15

GACCAGCCATGGACCGGTTTTCCCGGTAATCCGTATTTGTT (site GACCAGCCTAA)
recombinant UMI read abundance (log10): 0

GACCGCTCATGGACCGGTTTTCCCGGTAATCCGTATTTGGC (site GACCGCTCTGC)
recombinant UMI read abundance (log10): 2.43

GACCGGGCATGGACCGGTTTTCCCGGTAATCCGTATTTGAA (site GACCGGGCTTT)
recombinant UMI read abundance (log10): 0.143

GACCGGGCATGGACCGGTTTTCCCGGTAATCCGTATTTGCG (site GACCGGGCTCG)
recombinant UMI read abundance (log10): 0

GACCGTTCATGGACCGGTTTTCCCGGTAATCCGTATTTGCT (site GACCGTTCTAG)
recombinant UMI read abundance (log10): 1.7

GACCTCTCATGGACCGGTTTTCCCGGTAATCCGTATTTGTA (site GACCTCTCTTA)
recombinant UMI read abundance (log10): 2.09

GACCTTTCATGGACCGGTTTTCCCGGTAATCCGTATTTGTT (site GACCTTTCTAA)
recombinant UMI read abundance (log10): 0

GACGACGCATGGACCGGTTTTCCCGGTAATCCGTATTTGTC (site GACGACGCTGA)
recombinant UMI read abundance (log10): 2.6

GACGATTCATGGACCGGTTTTCCCGGTAATCCGTATTTGAT (site GACGATTCTAT)
recombinant UMI read abundance (log10): 2.03

GACGATTCATGGACCGGTTTTCCCGGTAATCCGTATTTGTT (site GAAGATTCTAA)
recombinant UMI read abundance (log10): 0.149

GACGATTCATGGACCGGTTTTCCCGGTAATCCGTATTTGTT (site GACGATTCTAA)
recombinant UMI read abundance (log10): 2.04

GACGATTCATGGACCGGTTTTCCCGGTAATCCGTATTTGTT (site GAGGATTCTAA)
recombinant UMI read abundance (log10): 0

GACGATTCATGGACCGGTTTTCCCGGTAATCCGTATTTGTT (site GATGATTCTAA)
recombinant UMI read abundance (log10): 0.263

GACGGCCCATGGACCGGTTTTCCCGGTAATCCGTATTTGTT (site AACGGCCCTAA)
recombinant UMI read abundance (log10): 0.00882

GACGGCCCATGGACCGGTTTTCCCGGTAATCCGTATTTGTT (site CACGGCCCTAA)
recombinant UMI read abundance (log10): 0.0467

GACGGCCCATGGACCGGTTTTCCCGGTAATCCGTATTTGTT (site GACGGCCCTAA)
recombinant UMI read abundance (log10): 0

GACGGCCCATGGACCGGTTTTCCCGGTAATCCGTATTTGTT (site TACGGCCCTAA)
recombinant UMI read abundance (log10): 0.00762

GACTAACCATGGACCGGTTTTCCCGGTAATCCGTATTTGGT (site GACAAACCTAC)
recombinant UMI read abundance (log10): 0.0462

GACTAACCATGGACCGGTTTTCCCGGTAATCCGTATTTGGT (site GACCAACCTAC)
recombinant UMI read abundance (log10): 0.00701

GACTAACCATGGACCGGTTTTCCCGGTAATCCGTATTTGGT (site GACGAACCTAC)
recombinant UMI read abundance (log10): 0

GACTAACCATGGACCGGTTTTCCCGGTAATCCGTATTTGGT (site GACTAACCTAC)
recombinant UMI read abundance (log10): 0

GACTATTCATGGACCGGTTTTCCCGGTAATCCGTATTTGTA (site GACTATTCTTA)
recombinant UMI read abundance (log10): 1.34

GACTCCTCATGGACCGGTTTTCCCGGTAATCCGTATTTGAA (site GACTCCTCTTT)
recombinant UMI read abundance (log10): 1.75

GACTGATCATGGACCGGTTTTCCCGGTAATCCGTATTTGGC (site GACTGATCTGC)
recombinant UMI read abundance (log10): 2.46

GACTGGACATGGACCGGTTTTCCCGGTAATCCGTATTTGAC (site GAATGGACTGT)
recombinant UMI read abundance (log10): 0

GACTGGACATGGACCGGTTTTCCCGGTAATCCGTATTTGAC (site GACTGGACTGT)
recombinant UMI read abundance (log10): 1.89

GACTGGACATGGACCGGTTTTCCCGGTAATCCGTATTTGAC (site GAGTGGACTGT)
recombinant UMI read abundance (log10): 0.438

GACTGGACATGGACCGGTTTTCCCGGTAATCCGTATTTGAC (site GATTGGACTGT)
recombinant UMI read abundance (log10): 0

GACTGGCCATGGACCGGTTTTCCCGGTAATCCGTATTTGCA (site GAATGGCCTTG)
recombinant UMI read abundance (log10): 0

GACTGGCCATGGACCGGTTTTCCCGGTAATCCGTATTTGCA (site GACTGGCCTTG)
recombinant UMI read abundance (log10): 0

GACTGGCCATGGACCGGTTTTCCCGGTAATCCGTATTTGCA (site GAGTGGCCTTG)
recombinant UMI read abundance (log10): 0

GACTGGCCATGGACCGGTTTTCCCGGTAATCCGTATTTGCA (site GATTGGCCTTG)
recombinant UMI read abundance (log10): 0.0169

GAGAAAACATGGACCGGTTTTCCCGGTAATCCGTATTTGCT (site GAGAAAACTAG)
recombinant UMI read abundance (log10): 1.16

GAGAAAACATGGACCGGTTTTCCCGGTAATCCGTATTTGCT (site GCGAAAACTAG)
recombinant UMI read abundance (log10): 0.0152

GAGAAAACATGGACCGGTTTTCCCGGTAATCCGTATTTGCT (site GGGAAAACTAG)
recombinant UMI read abundance (log10): 0

GAGAAAACATGGACCGGTTTTCCCGGTAATCCGTATTTGCT (site GTGAAAACTAG)
recombinant UMI read abundance (log10): 0

GAGAAATCATGGACCGGTTTTCCCGGTAATCCGTATTTGCG (site GAGAAATCTCG)
recombinant UMI read abundance (log10): 0

GAGAACCCATGGACCGGTTTTCCCGGTAATCCGTATTTGGA (site GAGAACCCTTC)
recombinant UMI read abundance (log10): 0
